What was measured:
[1] = biological target: T1, system Xc^− (Homo sapiens, UniProt Q9UPY5); test: [^14C]L-Cystine uptake assay; format: cell-based; set-up: endogenous in cells; host or cells: H4 cells; details: H4 cells, sodium-free HEPES buffer, 0.5 μM L-[14C]Cystine and 4.5 μM L-Cystine, 1 hour at 37° C.; for IC50: read-out: pIC50 [^14C] L-Cystine uptake assay (converted)
T1 sequence (Q9UPY5 1-501): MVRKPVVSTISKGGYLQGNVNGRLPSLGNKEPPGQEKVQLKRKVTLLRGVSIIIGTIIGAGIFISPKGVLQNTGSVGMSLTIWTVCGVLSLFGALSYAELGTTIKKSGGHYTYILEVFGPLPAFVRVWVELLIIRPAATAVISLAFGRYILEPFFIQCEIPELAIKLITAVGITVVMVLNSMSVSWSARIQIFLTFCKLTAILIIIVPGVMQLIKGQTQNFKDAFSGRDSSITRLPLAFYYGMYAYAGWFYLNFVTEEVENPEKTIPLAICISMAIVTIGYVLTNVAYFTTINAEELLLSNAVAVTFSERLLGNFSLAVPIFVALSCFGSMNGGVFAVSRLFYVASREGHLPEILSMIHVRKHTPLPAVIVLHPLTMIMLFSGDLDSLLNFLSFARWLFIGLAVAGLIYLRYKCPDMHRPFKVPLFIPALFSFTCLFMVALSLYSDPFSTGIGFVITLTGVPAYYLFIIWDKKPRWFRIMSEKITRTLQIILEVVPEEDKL
T1 sequence (P08195 1-529 partner): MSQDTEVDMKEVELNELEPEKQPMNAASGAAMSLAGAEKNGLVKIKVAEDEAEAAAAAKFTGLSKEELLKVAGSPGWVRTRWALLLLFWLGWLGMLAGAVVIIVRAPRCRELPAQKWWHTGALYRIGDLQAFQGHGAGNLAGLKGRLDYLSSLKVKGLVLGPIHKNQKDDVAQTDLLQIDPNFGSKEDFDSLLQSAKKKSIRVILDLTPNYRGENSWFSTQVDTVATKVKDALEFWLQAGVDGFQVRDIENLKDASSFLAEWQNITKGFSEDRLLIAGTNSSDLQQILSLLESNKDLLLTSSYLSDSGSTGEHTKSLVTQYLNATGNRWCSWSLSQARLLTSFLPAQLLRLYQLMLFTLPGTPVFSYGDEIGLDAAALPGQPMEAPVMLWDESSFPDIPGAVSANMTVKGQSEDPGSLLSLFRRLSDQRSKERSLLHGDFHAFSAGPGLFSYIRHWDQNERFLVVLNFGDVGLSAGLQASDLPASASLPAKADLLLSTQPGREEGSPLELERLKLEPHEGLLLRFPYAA
In short: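 Compound effect is given as pIC50, taken between controls of 1% DMSO and 50 μM Erastin. Human H4 cells were pretreated 15 min with compound in sodium-free buffer, then took up 0.5 μM [14C]cystine with 4.5 μM cold cystine for 1 hour at 37° C, read by scintillation proximity counting.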

[2] = biological target: T1, system Xc^−; test: Cystine-induced glutamate release assay; format: cell-based; set-up: endogenous in cells; host or cells: H4 cells; details: H4 cells, sodium-free HEPES buffer, 50 μM L-Cystine, 2 hours, Amplex Red glutamate readout; for IC50: read-out: pIC50 Cystine-induced glutamate release assay (converted)
In short: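 IC50 (reported as pIC50) normalized to DMSO 1% and Erastin 50 μM controls, from Amplex Red fluorescence of glutamate exported into supernatant. H4 cells were washed into sodium-free buffer to exclude EAAT transport, then given compound with 50 μM L-cystine for 2 h in the incubator.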

Row | IC50 [1] [nM] | IC50 [2] [nM] | SMILES | pIC50 [^14C] L-Cystine uptake assay [1] | pIC50 Cystine-induced glutamate release assay [2]
1 | < 15.8 | < 15.8 | COc1nccc2c1-c1cccnc1C(C)C(=O)N2CC(=O)Nc1ccc(Cl)c(F)c1 (single isomer, unassigned) [#297, N-(4-chloro-3-fluoro-phenyl)-2-[3-methoxy-10-methyl-9-oxo-4,8,12-triazatricyclo[9.4.0.0^2,7]pentadeca-1(15),2(7),3,5,11,13-hexaen-8-yl]acetamide] | – | –
2 | 15.8 to 39.8 | < 15.8 | O=C(CN1C(=O)C(O)c2ncc(F)cc2-c2c(F)cc(F)cc21)Nc1ccc(Cl)c(F)c1 (single isomer, unassigned) [#317, N-(4-chloro-3-fluoro-phenyl)-2-[2,9,11-trifluoro-5-hydroxy-6-oxo-5H-pyrido[2,3-d][1]benzazepin-7-yl]acetamide] | – | –
3 | 15.8 to 39.8 | < 15.8 | Cc1cc2c(c(F)n1)-c1cccnc1[C@@H](C)C(=O)N2CC(=O)Nc1ccc(F)c(Cl)c1 [#241, N-(3-chloro-4-fluoro-phenyl)-2-[(10R)-3-fluoro-5,10-dimethyl-9-oxo-4,8,12-triazatricyclo[9.4.0.0^2,7]pentadeca-1(15),2,4,6,11,13-hexaen-8-yl]acetamide] | – | –
4 | < 15.8 | < 15.8 | Cc1cc2c(c(Cl)n1)-c1ccnn1C(C)C(=O)N2CC(=O)Nc1ccc(C(F)F)cc1 (single isomer, unassigned) [#386, 2-[14-chloro-7,12-dimethyl-8-oxo-5,6,9,13-tetrazatricyclo[8.4.0.0^2,6]tetradeca-1(14),2,4,10,12-pentaen-9-yl]-N-[4-(difluoromethyl)phenyl]acetamide] | – | –
5 | < 15.8 | < 15.8 | CC1C(=O)N(CC(=O)Nc2ccc(C(F)F)cc2)c2cc(N3CC(F)(F)C3)ccc2-c2cccnc21 (single isomer, unassigned) [#334, 2-[9-(3,3-difluoroazetidin-1-yl)-5-methyl-6-oxo-5H-pyrido[2,3-d][1]benzazepin-7-yl]-N-[4-(difluoromethyl)phenyl]acetamide] | – | –
6 | 15.8 to 39.8 | 15.8 to 39.8 | COc1cc2c(c(F)n1)-c1cccnc1[C@@H](C)C(=O)N2CC(=O)Nc1ccc(C(F)(F)F)cc1 (single isomer, unassigned) [#209, Enantiomer (10S) or (10R) of 2-[3-fluoro-5-methoxy-10-methyl-9-oxo-4,8,12-triazatricyclo[9.4.0.0^2,7]pentadeca-1(15),2(7),3,5,11,13-hexaen-8-yl]-N-[4-(trifluoromethyl)phenyl]acetamide] | – | –
7 | 100 to 501 | 100 to 501 | Cc1cc2c(cn1)-c1ncccc1CC(=O)N2CC(=O)Nc1ccc(C(F)(F)F)cc1 [#12, 2-(13-methyl-9-oxo-3,10,14-triazatricyclo[9.4.0.0^2,7]pentadeca-1(11),2(7),3,5,12,14-hexaen-10-yl)-N-[4-(trifluoromethyl)phenyl]acetamide] | – | –
8 | 100 to 501 | 39.8 to 100 | COc1ncc(F)c2c1-c1ccccc1C(C)C(=O)N2CC(=O)Nc1ccc(Cl)c(F)c1 (centres unmarked) [#400, N-(4-chloro-3-fluoro-phenyl)-2-(4-fluoro-1-methoxy-7-methyl-6-oxo-7H-pyrido[4,3-d][3]benzazepin-5-yl)acetamide] | – | –
9 | 100 to 501 | 100 to 501 | Cc1ccc2c(n1)CC(=O)N(CC(=O)Nc1ccc(Cl)c(F)c1)c1cc(C)c(C)cc1-2 [#4, N-(4-chloro-3-fluoro-phenyl)-2-(3,9,10-trimethyl-6-oxo-5-H-pyrido[2,3-d][1]benzazepin-7-yl)acetamide] | – | –
10 | 15.8 to 39.8 | 15.8 to 39.8 | Cc1cc2c(c(O)n1)-c1cccnc1C(C)C(=O)N2CC(=O)Nc1ccc(C(F)(F)F)cc1 (single isomer, unassigned) [#161, 2-(3-hydroxy-5,10-dimethyl-9-oxo-4,8,12-triazatricyclo[9.4.0.0^2,7]pentadeca-1(11),2(7),3,5,12,14-hexaen-8-yl)-N-[4-(trifluoromethyl)phenyl]acetamide] | – | –
11 | < 15.8 | 39.8 to 100 | Cc1cc2c(c(C#N)n1)-c1cc(F)ccc1CC(=O)N2CC(=O)Nc1ccc(C(F)(F)F)cc1 [#127, 2-(1-cyano-10-fluoro-3-methyl-6-oxo-7H-pyrido[4,3-d][3]benzazepin-5-yl)-N-[4-(trifluoromethyl)phenyl]acetamide] | – | –
12 | 39.8 to 100 | 100 to 501 | Cc1cc2c(c(F)n1)-c1c[nH]nc1CC(=O)N2CC(=O)Nc1ccc(C(F)(F)F)cc1 [#123, 2-(14-fluoro-12-methyl-8-oxo-4,5,9,13-tetrazatricyclo[8.4.0.0^2,6]tetradeca-1(10),2,5,11,13-pentaen-9-yl)-N-[4-(trifluoromethyl)phenyl]acetamide] | – | –
13 | < 15.8 | 15.8 to 39.8 | Cc1cc2c(c(C#N)n1)-c1ccccc1CC(=O)N2CC(=O)Nc1ccc(C(F)(F)F)cc1 [#61, 2-(1-cyano-3-methyl-6-oxo-7H-pyrido[4,3-d][3]benzazepin-5-yl)-N-[4-(trifluoromethyl)phenyl]acetamide] | – | –
14 | 39.8 to 100 | 39.8 to 100 | Cc1cc2c(c(C(F)F)n1)-c1cccnc1C(C)C(=O)N2CC(=O)Nc1ccc(C(F)F)cc1 (single isomer, unassigned) [#301, 2-[3-(difluoromethyl)-5,10-dimethyl-9-oxo-4,8,12-triazatricyclo[9.4.0.0^2,7]pentadeca-1(11),2(7),3,5,12,14-hexaen-8-yl]-N-[4-(difluoromethyl)phenyl]acetamide] | – | –
15 | – | – | Cc1cc2c(c(Cl)n1)-c1ccccc1CC(=O)N2CC(=O)Nc1ccc(C(F)(F)F)cc1 (single isomer, unassigned) [#190, Atropisomer aS or aR of 2-(1-chloro-3-methyl-6-oxo-7H-pyrido[4,3-d][3]benzazepin-5-yl)-N-[4-(trifluoromethyl)phenyl]acetamide] | B (about 7.00 < pIC50 ≤ about 7.40) | A (about 6.3 ≤ pIC50 ≤ about 7.00)
16 | 15.8 to 39.8 | 15.8 to 39.8 | COc1cc(F)c2c(c1)N(CC(=O)Nc1ccc(Cl)c(F)c1)C(=O)C(C)c1ncccc1-2 (single isomer, unassigned) [#316, N-(4-chloro-3-fluoro-phenyl)-2-[11-fluoro-9-methoxy-5-methyl-6-oxo-5H-pyrido[2,3-d][1]benzazepin-7-yl]acetamide] | – | –
17 | < 15.8 | 15.8 to 39.8 | Cc1cc2c(c(F)n1)-c1cccnc1C(C)C(=O)N2CC(=O)Nc1ccc(C)c(F)c1 (centres unmarked) [#128, 2-(3-fluoro-5,10-dimethyl-9-oxo-4,8,12-triazatricyclo[9.4.0.0^2,7]pentadeca-1(11),2(7),3,5,12,14-hexaen-8-yl)-N-(3-fluoro-4-methyl-phenyl)acetamide] | – | –
18 | 15.8 to 39.8 | 15.8 to 39.8 | Cc1cc2c(c(F)n1)-c1cccnc1[C@@H](C)C(=O)N2CC(=O)Nc1ccc2c(cnn2C)c1 [#141, 2-[(10R)-3-fluoro-5,10-dimethyl-9-oxo-4,8,12-triazatricyclo[9.4.0.0^2,7]pentadeca-1(11),2(7),3,5,12,14-hexaen-8-yl]-N-(1-methylindazol-5-yl)acetamide] | – | –
19 | 39.8 to 100 | 100 to 501 | O=C(CN1C(=O)Cc2sccc2-c2cnc(Cl)cc21)Nc1ccc(C(F)(F)F)cc1 [#26, 2-(12-chloro-8-oxo-5-thia-9,13-diazatricyclo[8.4.0.0^2,6]tetradeca-1(10),2(6),3,11,13-pentaen-9-yl)-N-[4-(trifluoromethyl)phenyl]acetamide] | – | –

Source: US20260217708A1, “FUSED BENZAZEPINE DERIVATIVES FOR USE IN THE TREATMENT OF CANCER AND EPILEPSY” (UCB BIOPHARMA SRL, priority 2023, published 2026)
